Patent US10653698B2, “Methods of improving myocardial performance in Fontan patients using udenafil compositions” (priority 2014, dated 2020)

Legend:
[1] = system: adolescents with single ventricle physiology after Fontan palliation; test: Exercise testing (peak VO2 at maximum effort, VO2 at anaerobic threshold); format: in vivo, human; settings: for Peak VO2 at Anaerobic Threshold, Baseline measurement / Peak VO2 at Maximum Effort, Baseline measurement: day 1; for Peak VO2 at Anaerobic Threshold, Follow-up measurement / Peak VO2 at Maximum Effort, Follow-up measurement: post-medication, day 5
From the text: Exercise testing can include assessment of VO2 values during maximal effort or at anaerobic threshold. VO2 max, or maximal oxygen consumption, refers to the maximum amount of oxygen that an individual can utilize during intense exercise. This measurement is generally considered a reliable indicator of cardiovascular fitness and aerobic endurance. Theoretically, the more oxygen a person can use during high level exercise, the more energy that person can produce. This test is the gold standard for cardiorespiratory fitness because muscles need oxygen for prolonged (aerobic) exercise; blood carries oxygen to the muscles and the heart must pump adequate amounts of blood to meet the demands of aerobic exercise. VO2 is often measured by putting a mask on a subject, and measuring the volume and gas concentrations of inhaled and expired air. This measurement is often used in both clinical settings and research and is considered the most accurate. Testing commonly involves either exercising on a treadmill or riding a bike at increasing intensity until exhaustion, and is designed to provide readings at a maximal effort of the subject and/or at the subject's anaerobic threshold. The purpose of this example was to evaluate the efficacy of the treatment protocol described in Example 1 using various exercise testing parameters. The primary outcome of this arm of the study was maximal VO2 as determined by exercise testing. Table 14 summarizes results for the key outcome from the exercise testing—peak VO2 (limited to the subjects who achieved maximum effort) by treatment group. Out of the 36 subjects enrolled in the trial, 33 reached max effort in the exercise testing at each of the time points, and 31 subjects at both time points. The first two lines present data for baseline and follow-up measurements, while the third line presents differences between the two measurements (change scores, the outcome for this aim). […] An additional outcome, VO2 at anaerobic threshold, was also measured. Similar analyses were performed for this outcome. Overall results are similar to those for maximal VO2.

[2] = Pharmacokinetic testing, non-compartmental analysis of plasma concentrations; format: in vivo, human
Method: NONMEM version 7.2, R, PDxPOP® 5, Xpose, and Phoenix WinNonlin was used for the pharmacokinetic analysis.
Pharmacokinetic analysis was performed on Fontan patients receiving udenafil. […] Plasma concentrations were determined at various time points and non-compartmental analysis was performed in patients and stratified by dosing regimens.

[3] = 87.5 mg q12 h and 125 mg q24 h cohorts compared to 37.5 mg q12 h or q24 h cohorts

CCCOc1ccc(S(=O)(=O)NCCC2CCCN2C)cc1-c1nc2c(CCC)nn(C)c2c(=O)[nH]1 (stereo not shown) [udenafil]
Peak VO2 at Anaerobic Threshold, Difference, FU − BL ([1]; 37.5 mg daily): -0.5 ± 4.1 mL/min/kg
Peak VO2 at Maximum Effort, Difference, FU − BL ([1]; 37.5 mg daily): -0.8 ± 1.7 mL/min/kg
Peak VO2 at Anaerobic Threshold, Baseline measurement ([1]; 37.5 mg daily): 17.2 ± 5.0 mL/min/kg
Peak VO2 at Maximum Effort, Baseline measurement ([1]; 37.5 mg daily): 24.6 ± 6.9 mL/min/kg
Peak VO2 at Anaerobic Threshold, Follow-up measurement ([1]; 37.5 mg daily): 16.3 ± 2.0 mL/min/kg
Peak VO2 at Maximum Effort, Follow-up measurement ([1]; 37.5 mg daily): 24.7 ± 6.7 mL/min/kg
Peak VO2 at Anaerobic Threshold, Difference, FU − BL ([1]; 37.5 mg twice daily): 0.1 ± 1.0 mL/min/kg
Peak VO2 at Maximum Effort, Difference, FU − BL ([1]; 37.5 mg twice daily): -1.6 ± 5.1 mL/min/kg
Peak VO2 at Anaerobic Threshold, Baseline measurement ([1]; 37.5 mg twice daily): 18.0 ± 3.0 mL/min/kg
Peak VO2 at Maximum Effort, Baseline measurement ([1]; 37.5 mg twice daily): 30.4 ± 6.2 mL/min/kg
Peak VO2 at Anaerobic Threshold, Follow-up measurement ([1]; 37.5 mg twice daily): 18.1 ± 3.0 mL/min/kg
Peak VO2 at Maximum Effort, Follow-up measurement ([1]; 37.5 mg twice daily): 28.8 ± 8.1 mL/min/kg
Peak VO2 at Anaerobic Threshold, Difference, FU − BL ([1]; 87.5 mg daily): -1.1 ± 1.9 mL/min/kg
Peak VO2 at Maximum Effort, Difference, FU − BL ([1]; 87.5 mg daily): -1.4 ± 2.5 mL/min/kg
Peak VO2 at Anaerobic Threshold, Baseline measurement ([1]; 87.5 mg daily): 17.6 ± 5.3 mL/min/kg
Peak VO2 at Maximum Effort, Baseline measurement ([1]; 87.5 mg daily): 28.4 ± 6.2 mL/min/kg
Peak VO2 at Anaerobic Threshold, Follow-up measurement ([1]; 87.5 mg daily): 16.5 ± 4.8 mL/min/kg
Peak VO2 at Maximum Effort, Follow-up measurement ([1]; 87.5 mg daily): 27.1 ± 5.0 mL/min/kg
Peak VO2 at Anaerobic Threshold, Difference, FU − BL ([1]; 87.5 mg twice daily): -1.7 ± 2.1 mL/min/kg
Peak VO2 at Maximum Effort, Difference, FU − BL ([1]; 87.5 mg twice daily): 0.2 ± 5.0 mL/min/kg
Peak VO2 at Anaerobic Threshold, Baseline measurement ([1]; 87.5 mg twice daily): 18.3 ± 4.6 mL/min/kg
Peak VO2 at Maximum Effort, Baseline measurement ([1]; 87.5 mg twice daily): 28.0 ± 5.2 mL/min/kg
Peak VO2 at Anaerobic Threshold, Follow-up measurement ([1]; 87.5 mg twice daily): 16.5 ± 5.2 mL/min/kg
Peak VO2 at Maximum Effort, Follow-up measurement ([1]; 87.5 mg twice daily): 28.2 ± 6.0 mL/min/kg
Peak VO2 at Anaerobic Threshold, Difference, FU − BL ([1]; 125 mg daily): 1.2 ± 1.9 mL/min/kg
Peak VO2 at Maximum Effort, Difference, FU − BL ([1]; 125 mg daily): 0.9 ± 2.6 mL/min/kg
Peak VO2 at Anaerobic Threshold, Baseline measurement ([1]; 125 mg daily): 18.8 ± 1.8 mL/min/kg
Peak VO2 at Maximum Effort, Baseline measurement ([1]; 125 mg daily): 28.6 ± 3.0 mL/min/kg
Peak VO2 at Anaerobic Threshold, Follow-up measurement ([1]; 125 mg daily): 20.0 ± 3.2 mL/min/kg
Peak VO2 at Maximum Effort, Follow-up measurement ([1]; 125 mg daily): 28.6 ± 3.8 mL/min/kg
AUCτ [2, 3]: significantly increased
Cmax [2, 3]: significantly increased
AUC0-24 ([2]; 87.5 mg q12 h cohort among all regimens tested): highest
Cmax ([2]; 87.5 mg q12 h cohort compared to its q24 h counterpart): increased
AUC0-24 ([2]; 125 mg q24 h cohort compared to 37.5 mg q24 h cohort): significantly increased
ke, T1/2, or Tmax ([2]; among all 5 tested dosing regimens): no statistically significant difference
CL/F or V/F ([2]; among dosing regimens, except between 37.5 mg q24 h and 87.5 mg q12 h): No significant difference
